Assay results: ChEMBL document CHEMBL5120828, “Identification and optimisation of a pyrimidopyridone series of IRAK4 inhibitors” (Bioorg Med Chem, 2022)

Tests used:
[1] = Intrinsic permeability across apical to basolateral side in human Caco-2 cells; type: ADME, cell-based
[2] = Octanol/water partition coefficient, logP of compound at pH 7.4 by shake-flask method; type: physicochemical
[3] = Efflux ratio of permeability in human Caco-2 cells; type: ADME, cell-based
[4] = biological target: T1, Interleukin-1 receptor-associated kinase 4 (Homo sapiens, UniProt Q9NWZ3); assay: Inhibition of human recombinant IRAK4 assessed as unphosphorylated KKARFSRFAGSSPSQSSMVAR peptide substrate measured after 2 hrs by LC-MS/MS analysis
T1 sequence (Q9NWZ3 whole entry): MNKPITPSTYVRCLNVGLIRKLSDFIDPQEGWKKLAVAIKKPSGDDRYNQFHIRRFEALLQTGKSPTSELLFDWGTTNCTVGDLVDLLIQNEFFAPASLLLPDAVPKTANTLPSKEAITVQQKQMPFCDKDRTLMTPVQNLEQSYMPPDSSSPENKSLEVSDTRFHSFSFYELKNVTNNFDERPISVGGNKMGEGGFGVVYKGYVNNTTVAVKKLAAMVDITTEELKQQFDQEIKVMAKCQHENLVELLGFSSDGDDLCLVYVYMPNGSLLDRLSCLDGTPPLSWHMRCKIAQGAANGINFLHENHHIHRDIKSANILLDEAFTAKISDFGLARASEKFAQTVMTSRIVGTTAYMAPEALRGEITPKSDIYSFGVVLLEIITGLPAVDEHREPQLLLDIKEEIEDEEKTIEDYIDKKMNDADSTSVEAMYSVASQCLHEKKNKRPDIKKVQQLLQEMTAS

[5] = biological target: T1, Interleukin-1 receptor-associated kinase 4; assay: Inhibition of IRAK4 in IL1-stimulated human KARPAS-299 cells assessed as fluorescence intensity; type: cell-based
[6] = Metabolic stability in human liver microsomes assessed as intrinsic clearance; type: ADME

COC(=O)N1CCN([C@H]2CC[C@H](Nc3nc(Nc4cnn(C)c4)nc4ccc(C)nc34)CC2)CC1
Papp A→B [1]: 7.9 ×10⁻⁶ cm/s
logD [2]: 2.6
efflux ratio [3]: 2.1
IC50 [4]: 5 nM
IC50 [5]: 180 nM
CLint [6]: 37 µL/min/mg

CN1C[C@H]2C[C@@H]1C[C@@H]2n1cc(Nc2nc(NC3(C)CC3)c3c(=O)n(C)ccc3n2)cn1
logD [2]: 1.2
IC50 [4]: 16 nM
IC50 [5]: 320 nM
CLint [6]: 14 µL/min/mg

COC(=O)N1CCN([C@H]2CC[C@H](Nc3nc(Nc4cnn(C)c4)nc4ccn(C)c(=O)c34)CC2)CC1
Papp A→B [1]: 17 ×10⁻⁶ cm/s
logD [2]: 2.4
efflux ratio [3]: 3
IC50 [4]: 5 nM
IC50 [5]: 150 nM
CLint [6]: 22 µL/min/mg

CN1CCC(n2cc(Nc3nc(NC4(C)CC4)c4c(=O)n(C)ccc4n3)cn2)CC1
Papp A→B [1]: 17 ×10⁻⁶ cm/s
logD [2]: 2.4
efflux ratio [3]: 3.1
IC50 [4]: 1 nM
IC50 [5]: 39 nM
CLint [6]: 25 µL/min/mg

C[C@H](F)Cn1ccc2nc(Nc3cnn([C@H]4C[C@H]5C[C@@H]4CN5C)c3)nc(NC3(C)CC3)c2c1=O
logD [2]: 2
IC50 [4]: 3 nM
IC50 [5]: 79 nM
CLint [6]: 12 µL/min/mg

CN1CC2(CC(n3cc(Nc4nc(NC5(C)CC5)c5c(=O)n(CC(F)F)ccc5n4)cn3)C2)C1
Papp A→B [1]: 12 ×10⁻⁶ cm/s
logD [2]: 2
efflux ratio [3]: 7.1
IC50 [4]: 4 nM
IC50 [5]: 90 nM
CLint [6]: 9.6 µL/min/mg

CN1CC(n2cc(Nc3nc(NC4(C)CC4)c4c(=O)n(C)ccc4n3)cn2)CCC1=O (stereo not given)
logD [2]: 2.4
IC50 [4]: 2 nM
IC50 [5]: 75 nM
CLint [6]: 89 µL/min/mg

Cn1cc(Nc2nc(NC3(C)CC3)c3nc(CC#N)ccc3n2)cn1
logD [2]: 2.7
CLint [6]: 82 µL/min/mg

Cn1cc(Nc2nc(NC3(C)CC3)c3c(=O)n(C)ccc3n2)cn1
Papp A→B [1]: 67 ×10⁻⁶ cm/s
logD [2]: 2.9
efflux ratio [3]: 0.75
IC50 [4]: 8 nM
IC50 [5]: 190 nM
CLint [6]: 13 µL/min/mg

COC(=O)N1CCN([C@H]2CC[C@H](Nc3nc(Nc4cnn(C)c4)nc4ccn(CC#N)c(=O)c34)CC2)CC1
logD [2]: 2.3
IC50 [4]: 23 nM
IC50 [5]: 440 nM
CLint [6]: 25 µL/min/mg

CN1C[C@H]2C[C@@H]1C[C@@H]2n1cc(Nc2nc(NC3(C)CC3)c3c(=O)n(CC(F)F)ccc3n2)cn1
logD [2]: 1.9
IC50 [4]: 4 nM
IC50 [5]: 150 nM
CLint [6]: 23 µL/min/mg

CN1CCC(n2cc(Nc3nc(NC4(C)CC4)c4c(=O)n(CC(F)F)ccc4n3)cn2)CC1
logD [2]: 2.9
IC50 [4]: 2 nM
IC50 [5]: 83 nM
CLint [6]: 50 µL/min/mg

CN1C[C@@H]2C[C@H]1C[C@@H]2n1cc(Nc2nc(NC3(C)CC3)c3c(=O)n(C)ccc3n2)cn1
logD [2]: 1.4
IC50 [4]: 3 nM
IC50 [5]: 90 nM
CLint [6]: 17 µL/min/mg

C[C@@H](CF)n1ccc2nc(Nc3cnn(C4CCN(C)CC4)c3)nc(NC3(C)CC3)c2c1=O
logD [2]: 3
IC50 [4]: 4 nM
IC50 [5]: 150 nM
CLint [6]: 51 µL/min/mg

CN1CCC(n2cc(Nc3nc(NC4(C)CC4)c4c(=O)n(C(F)F)ccc4n3)cn2)CC1
logD [2]: 3.3
IC50 [4]: 3 nM
IC50 [5]: 170 nM
CLint [6]: 31 µL/min/mg

CN1CCC(n2cc(Nc3nc(NC4(C)CC4)c4c(=O)n(-c5cn(C)nn5)ccc4n3)cn2)CC1
Papp A→B [1]: 21 ×10⁻⁶ cm/s
logD [2]: 2.5
efflux ratio [3]: 2
IC50 [4]: 6 nM
IC50 [5]: 180 nM
CLint [6]: 49 µL/min/mg

C[C@H](F)Cn1ccc2nc(Nc3cnn(C4CCN(C)CC4)c3)nc(NC3(C)CC3)c2c1=O
logD [2]: 2.9
IC50 [4]: 2 nM
IC50 [5]: 56 nM
CLint [6]: 47 µL/min/mg

CN1CCC(n2cc(Nc3nc(NC4(C)CC4)c4c(=O)n(-c5cncnc5)ccc4n3)cn2)CC1
logD [2]: 2.3
efflux ratio [3]: 5
IC50 [4]: 4 nM
IC50 [5]: 72 nM
CLint [6]: 38 µL/min/mg

CN1CC2(CC(n3cc(Nc4nc(NC5(C)CC5)c5c(=O)n(C)ccc5n4)cn3)C2)C1
Papp A→B [1]: 5.7 ×10⁻⁶ cm/s
logD [2]: 1.4
efflux ratio [3]: 15
IC50 [4]: 1 nM
IC50 [5]: 33 nM
CLint [6]: 9.7 µL/min/mg

CN1CCC(n2cc(Nc3nc(NC4(C)CC4)c4c(=O)n(-c5cnn[nH]5)ccc4n3)cn2)CC1
Papp A→B [1]: 3.3 ×10⁻⁶ cm/s
logD [2]: 2.5
efflux ratio [3]: 28
IC50 [4]: 1 nM
IC50 [5]: 69 nM
CLint [6]: 20 µL/min/mg

C[C@H](CF)n1ccc2nc(Nc3cnn(C4CCN(C)CC4)c3)nc(NC3(C)CC3)c2c1=O
logD [2]: 2.8
IC50 [4]: 5 nM
IC50 [5]: 170 nM
CLint [6]: 47 µL/min/mg

CN1CCC(n2cc(Nc3nc(NC4(C)CC4)c4c(=O)n(C5CC5)ccc4n3)cn2)CC1
logD [2]: 2.5
IC50 [4]: 4 nM
IC50 [5]: 74 nM
CLint [6]: 25 µL/min/mg

CN1CC2(CC(n3cc(Nc4nc(NC5(C)CC5)c5c(=O)n(-c6cn(C)nn6)ccc5n4)cn3)C2)C1
logD [2]: 1.7
IC50 [4]: 15 nM
IC50 [5]: 500 nM
CLint [6]: < 3 µL/min/mg

C[C@@H](F)Cn1ccc2nc(Nc3cnn(C4CCN(C)CC4)c3)nc(NC3(C)CC3)c2c1=O
logD [2]: 2.9
IC50 [4]: 21 nM
IC50 [5]: 110 nM
CLint [6]: 41 µL/min/mg

CN(C)CC(=O)N1CCC(n2cc(Nc3nc(NC4(C)CC4)c4c(=O)n(C)ccc4n3)cn2)CC1
Papp A→B [1]: 4.3 ×10⁻⁶ cm/s
logD [2]: 1.7
efflux ratio [3]: 37
IC50 [4]: 1 nM
IC50 [5]: 16 nM
CLint [6]: 40 µL/min/mg

CN(C)C(=O)CN1CCC(n2cc(Nc3nc(NC4(C)CC4)c4c(=O)n(C)ccc4n3)cn2)CC1
Papp A→B [1]: 15 ×10⁻⁶ cm/s
logD [2]: 2.4
efflux ratio [3]: 8.8
IC50 [4]: 0.8 nM
IC50 [5]: 46 nM
CLint [6]: 57 µL/min/mg

CC(C)n1ccc2nc(Nc3cnn(C4CCN(C)CC4)c3)nc(NC3(C)CC3)c2c1=O
logD [2]: 3.3
IC50 [4]: 5 nM
IC50 [5]: 210 nM
CLint [6]: 32 µL/min/mg

CC(=O)N1CCC(n2cc(Nc3nc(NC4(C)CC4)c4c(=O)n(C)ccc4n3)cn2)CC1
Papp A→B [1]: 48 ×10⁻⁶ cm/s
logD [2]: 2.5
efflux ratio [3]: 6
IC50 [4]: 2 nM
IC50 [5]: 49 nM
CLint [6]: 83 µL/min/mg

CN1CCC(n2cc(Nc3nc(NC4(C)CC4)c4c(=O)n(-c5nnc[nH]5)ccc4n3)cn2)CC1
Papp A→B [1]: 16 ×10⁻⁶ cm/s
logD [2]: 1.8
efflux ratio [3]: 4.5
IC50 [4]: 11 nM
IC50 [5]: 320 nM
CLint [6]: 4.7 µL/min/mg

CN1CC[C@H](n2cc(Nc3nc(NC4(C)CC4)c4c(=O)n(C)ccc4n3)cn2)[C@H](F)C1 (racemic)
logD [2]: 2.7
IC50 [4]: 0.6 nM
IC50 [5]: 10 nM
CLint [6]: 61 µL/min/mg

C[C@@H]1C[C@@H](n2cc(Nc3nc(NC4(C)CC4)c4c(=O)n(C)ccc4n3)cn2)CCN1C (racemic)
logD [2]: 2.2
IC50 [4]: < 1 nM
IC50 [5]: 50 nM
CLint [6]: 88 µL/min/mg

CN1CC[C@H](n2cc(Nc3nc(NC4(C)CC4)c4c(=O)n(C)ccc4n3)cn2)[C@@H](F)C1 (racemic)
logD [2]: 3.2
IC50 [4]: 1 nM
IC50 [5]: 45 nM
CLint [6]: 98 µL/min/mg

C[C@H]1C[C@@H](n2cc(Nc3nc(NC4(C)CC4)c4c(=O)n(C)ccc4n3)cn2)CCN1C (relative stereo)
logD [2]: 2.7
IC50 [4]: 0.6 nM
IC50 [5]: 18 nM
CLint [6]: 31 µL/min/mg
